{"source": "patent US6541490B1", "about": "“Bipyridine manganese complexes” (Eukarion, Inc., priority 1998, dated 2003)", "type_in_all_cases": "biochemical", "key": {"[1]": {"assay": "Peroxidase (POD) assay: hydrogen peroxide removal with hydrogen donor ABTS", "settings": "ABTS 3 mM, 0.05M Tris HCl pH 7.4, 25° C., 2 minutes, interpolated against horseradish peroxidase standard curve", "description": "This method measures the ability of the compounds to remove hydrogen peroxide in the presence of the hydrogen donor 2,2′-azino-di-[3-ethyl-benzothiazoline-(6)-sulphonic acid (ABTS) (Galati, H., J. Clin. Chem. Clin. Biochem. (1979) 17, 1-7).\n(§1) The assays for compound antioxidant activity were carried out in 96-well microtitre plates using a DIAS modular assay robot instrument (Dynatech Ltd.) Compounds were solublised in DMF at 10 mM. DMF concentrations in the assay never exceeded 1%, were tolerated and were controlled for in assay plates.\nABTS (Sigma A-1888) 3 mM was incubated with various concentrations of compound in 0.05M Tris HCI pH 7.4 at 25° C. A range of standard concentrations of horseradish peroxidase (Sigma P-6140) were included on each microtitre plate. Hydrogen peroxide (Sigma H1009) 100 mM was added and the plate incubated at 25° C. for 2 minutes. Absorbance at 405 nm was measured and the rates of ABTS […] calculated. A standard curve was constructed using data from wells containing known concentrations of peroxidase. Data for wells containing compound were interpolated against this curve using the software tools Excel (Microsoft Corp.) and Xlfit (ID Business Solutions). Estimations of peroxidase activity were given as International Units of peroxidase activity/mmol compound."}, "[2]": {"assay": "Catalase (CAT) assay: removal of hydrogen peroxide, HRP/ABTS read-out", "settings": "amount of hydrogen peroxide removed per minute, per mmol of compound; 0.05M Tris HCl pH 7.4, 25° C., 60 mins", "from_the_text": "This method measures catalase activity as the ability to remove hydrogen peroxide from solution in the absence of hydrogen donors over one hour. After this time any remaining peroxide was removed by introduction to the mixture of high concentrations of horseradish peroxidase and the hydrogen donor 2,2′-azino-di-[3-ethyl-benzothiazoline-(6)-sulphonic acid (ABTS). This rapid reaction produces peroxide-concentration-dependant product with a maximal absorbance at 405 nm.\nas §1\nHydrogen peroxide (Sigma H1009) 100 mM was incubated with various concentrations of compound in 0.05M Tris HCI pH 7.4 at 25° C. for 60 mins. […] Plates were then read for absorbance at 405 nm. A standard curve for absorbance against known hydrogen peroxide concentration was constructed. Absorbance data for wells containing compound were interpolated against this curve using the software tools Excel (Microsoft Corp.) and Xlfit (ID Business Solutions). […]\nThe catalase assay procedure described above provides certain advantages over previously described assays. […] The oxidation of ABTS results in a colour change which can be measured. […]"}, "[3]": {"assay": "Superoxide dismutase (SOD) assay: xanthene oxidase/hypoxanthene, XTT reduction", "settings": "SOD activity from IC50 of XTT reduction (one International Unit), normalised; 0.05M Tris/HCl pH 7.4, 25° C.", "description": "This method is adapted from what has become the standard method for the measurement of SOD activity (McCord J. M., Fridovich, I., J. Biol. Chem. 244, 6049-6055, 1969). Briefly, a steady-state production of superoxide anion was maintained by the action of xanthene oxidase (XO) on hypoxanthene (HX) at physiological pH. Presence of the anion was measured by the reduction of XTT (3′-{1-(phenylamino)-carbonyl]-3,4-tetrazolium]-bis(4-methoxy-6-nitro)benzsulphonic acid to a water-soluble product with an absorbance maximum at ˜470 nm. Hypoxanthene concentrations were titrated so as to give a steady-state rate of XTT reduction of 0.025 Optical Density Units (OD) per minute at 25° C.\nas §1\nXanthene oxidase (Sigma X1875) 0.01 U/ml and XTT (Sigma X4251), 0.5 mM and hypoxanthene (Sigma H9377), typically at […], were incubated in the presence of various doses of compounds at 25° C. in 0.05M Tris/HCI pH 7.4. Rates of XTT reduction were measured over 5 minutes at 490 nm. Dose-response curves were constructed for inhibition by the compound of control rates of XTT reduction. […]"}}, "data": [{"smiles": "CCCCCCc1cccc2c1[O][Mn]([O]C(C)=O)[O]c1c(CCCCCC)cccc1-c1cccc(n1)-c1cccc-2n1", "note": "[Example 18, 6,6′-bis(3-Hexyl-2-hydroxyphenyl)-2,2′-bipyridine-manganese(III)acetate]", "values": [{"measurement": "POD", "setting": "[1]", "result": "209.92 International Units of peroxidase activity/mmol compound"}, {"measurement": "CAT", "setting": "[2]", "result": 0.0083}, {"measurement": "SOD", "setting": "[3]", "result": 41.43, "unit": "U/mmol compound"}]}]}
